# Measured values as given in BindingDB's records for doi:10.1016/0014-2999(93)90488-4 (Maryland Psychiatric Research Center, 1993).
# Assays:
# [1] = molecular target: T1, D(4) dopamine receptor (Homo sapiens, UniProt P21917)
# T1 sequence (P21917 whole entry): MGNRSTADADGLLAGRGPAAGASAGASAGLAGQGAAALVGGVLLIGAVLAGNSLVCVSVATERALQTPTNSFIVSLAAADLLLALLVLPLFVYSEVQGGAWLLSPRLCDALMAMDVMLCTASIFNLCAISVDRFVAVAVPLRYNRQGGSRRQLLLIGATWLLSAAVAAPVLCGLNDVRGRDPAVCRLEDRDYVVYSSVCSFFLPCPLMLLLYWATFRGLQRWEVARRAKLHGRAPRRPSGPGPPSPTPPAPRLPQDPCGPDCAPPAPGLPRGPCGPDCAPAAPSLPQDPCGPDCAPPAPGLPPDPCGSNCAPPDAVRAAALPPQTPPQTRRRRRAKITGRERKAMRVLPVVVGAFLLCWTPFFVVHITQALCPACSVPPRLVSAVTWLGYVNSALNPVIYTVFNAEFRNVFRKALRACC
# [2] = molecular target: D(2) dopamine receptor (Homo sapiens, UniProt P14416)
# D(2) dopamine receptor, sequence (P14416 whole entry): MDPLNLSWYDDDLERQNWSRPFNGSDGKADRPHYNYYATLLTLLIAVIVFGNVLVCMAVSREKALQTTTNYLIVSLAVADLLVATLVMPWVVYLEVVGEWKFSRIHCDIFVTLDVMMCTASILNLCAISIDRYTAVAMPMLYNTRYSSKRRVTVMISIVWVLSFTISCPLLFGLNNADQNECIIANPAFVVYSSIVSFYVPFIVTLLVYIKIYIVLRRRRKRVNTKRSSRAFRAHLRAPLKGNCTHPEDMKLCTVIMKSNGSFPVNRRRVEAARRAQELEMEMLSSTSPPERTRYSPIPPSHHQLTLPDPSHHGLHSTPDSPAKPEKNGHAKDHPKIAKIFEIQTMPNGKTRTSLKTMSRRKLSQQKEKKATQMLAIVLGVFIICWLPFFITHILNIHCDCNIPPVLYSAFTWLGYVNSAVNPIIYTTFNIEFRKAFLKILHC
SMILES,Ki [1] [nM],Ki [2] [nM]
CCN(CC)C(=O)N[C@H]1C[C@@H]2c3cccc4[nH]cc(c34)C[C@H]2N(C)C1,5.2,0.7
"O=C(O)c1ccccc1C(=O)Nc1cccc2ccccc12 [NPA,(+)]",120,291
CCCOc1ccc2nc(NC(=O)OC)[nH]c2c1 [SMR000058208],152,–
CC1CCN(CCCC(=O)c2ccc(F)cc2)CC1 [CAS_3575-80-2],139,–
CCCN[C@@H]1CCc2c(OC)cccc2[C@@H]1C,132,120
CCCN(CCC)C1C=Cc2c(OC)cccc2C1C (configuration not stated) [CAS_5311190],66.5,29.4
CN1CCN(CCCN2c3ccccc3Sc3ccc(C(F)(F)F)cc32)CC1,–,1.1
CN1C[C@@H](NC(=O)C(C)(C)C)CC2c3cccc4[nH]c(Cl)c(c34)C[C@H]21 (some centres not stated) [SDZ-208-912],3.5,0.9
"CCN1CCC[C@H]1CNC(=O)c1c(O)c(Cl)cc(Cl)c1OC [3,5-Dichloro-N-(1-ethyl-pyrrolidin-2-ylmethyl)-2-hydroxy-6-methoxy-benzamide (raclopride)]",1340,–
CSc1ccc2c(c1)N(CC[C@@H]1CCCCN1C)c1ccccc1S2 [10-[2-(1-Methyl-piperidin-2-yl)-ethyl]-2-methylsulfanyl-10H-phenothiazine (thioridazine)],22.9,–
"CN1CCN(C2=Nc3ccccc3Oc3ccc(Cl)cc32)CC1 [13-chloro-10-(4-methylpiperazin-1-yl)-2-oxa-9-azatricyclo[9.4.0.0^{3,8}]pentadeca-1(11),3,5,7,9,12,14-heptaene]",29,–
CCCN1CCCC(c2cccc(O)c2)C1 (configuration not stated) [CAS_85976-54-1],546,–
